Data reported in patent US10065965B2, “Imidazo[1,2-B][1,2,4]triazine derivatives as antiparasitic agents” (GlaxoSmithKline Intellectual Property Development Limited, priority 2015, dated 2018).
Converted amounts (≈) assume the structure as drawn.

Key:
Trypanosoma cruzi [1] = assay: Assay 2 Trypanosoma cruzi intracellular assay (infected Vero cells); assay type: cell-based; conditions: 72 h, read-out: pEC50 value against Trypanosoma cruzi (converted)
Experimental: Compounds were dispensed into black 384-well assay plates (Corning) by acoustic dispensing (LabCyte ECHO). For potency determinations, ten-point one in three dilution curves were generated, with a top concentration of 50 μM. Vero cells were infected overnight with T. cruzi trypomastigotes in T225 tissue culture flasks at a multiplicity of infection of 5. Next, any remaining free trypomastigotes were washed away with serum free MEM media and the infected Vero cells were harvested by trypsinisation. The infected Vero cells were then plated into 384-well plates containing the compounds to be tested, at 4000 cells per well in MEM media with 1% FCS. After 72 h incubation at 37° C. in presence of 5% CO2, the plates were fixed with 4% formaldehyde for 20 minutes at room temperature and stained with 5 μg/ml Hoechst 33342. The plates were imaged on a Perkin Elmer Operetta high-content imaging system using a 20× objective. Images were analysed using the Columbus system (Perkin Elmer). The image analysis algorithm first identified the Vero nuclei followed by demarcation of the cytoplasm and identification of intracellular amastigotes. This algorithm reported mean number of parasites per Vero cell and total number of Vero cells.

Trypanosoma cruzi [2] = assay: Assay 6 Trypanosoma cruzi intracellular assay (infected H9C2 cells); assay type: cell-based; conditions: H9c2, in Rattus norvegicus, 72 h, infected H9C2 rat cardiomyocytes, read-out: pEC50 value against Trypanosoma cruzi (converted)
Procedure, shortened: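 Infected H9C2 rat cardiomyocytes (T. cruzi trypomastigotes, MOI 1, 18 h) plated at 2500 cells/well on compound, 11-point 1:3 curves from 50 μM top, 72 h at 37 °C in 2% FBS DMEM. Fixed, Draq5-stained, high-content imaged; algorithm counts parasites per cell, % infected cells and total host cells (cytotoxicity).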

Trypanosoma brucei = assay: Assay 3 Trypanosoma brucei cell growth inhibition assay; assay type: cell-based; conditions: T. b. brucei BSF427, 69 h + 4 h resazurin, maximum threshold 8.0, read-out: pEC50 value against Trypanosoma brucei (converted)
Experimental: Measurement of the ability of the compounds to inhibit trypanosome (T. b. brucei, BSF427, VSG118) cell growth was performed using a modification of the cell viability assay previously described by Raz et al. (Raz B.; Iten M.; Grether-Buhler Y.; Kaminski R.; Brun R. The Alamar Blue assay to determine drug sensitivity of African trypanosomes (T. b. rhodesiense and T. b. gambiense) in vitro. Acta Trop. 1997, 68, 139-147). Compounds were dissolved in DMSO at a top concentration of 10 mM and serially diluted in half log steps to achieve a range of final assay concentrations of 50 μM to 0.5 nM. Compound at each concentration (200-fold final) was added to clear 96-well tissue culture plates in a volume of 1 μL. Then 2000 cells per well in relevant growth medium (HMI-9T for T. brucei, a modification of HMI-9 as described by Hurumi et al. (Hirumi H.; Hirumi K. Continuous cultivation of Trypanosoma brucei blood stream forms in a medium containing a low concentration of serum-protein without feeder cell-layers. J. Parasitol. 1989, 75, 985-989.) where 0.2 mM 2-mercaptoethanol was replaced with 0.056 mM thiolglycerol, and MEM with 10% FBS for MRC5) were then added to columns 1-11 of the plates in a volume of 199 μL. To column 12, 200 μL of medium was added to provide a no cells control. Plates were then incubated at 37° C. in an atmosphere of 5% CO2 for 69 h, before the addition of 20 μL of 500 μM rezasurin solution, and a further incubation period of 4 h. Plates were then read on a BioTek flx800 fluorescent plate reader, and percentage inhibition was compared to the maximum and minimum assay controls. Concentration effect curves were fitted using nonlinear regression using XLFit 4.2 and EC50 values determined.

[3] = Assay 6 Trypanosoma cruzi intracellular assay, cytotoxicity against H9c2 cells; assay type: cell-based; conditions: rat, H9C2 cardiomyocytes infected with T. cruzi trypomastigotes, total number of H9C2 cells, minimum threshold 4.3, read-out: cytotoxicity against H9c2 cells, pEC50 (converted)
Experimental: Compounds were dispensed into black 384-well assay plates (Greiner) by acoustic dispensing (LabCyte ECHO). For potency determinations, eleven-point, one in three dilution curves were generated, with a top concentration of 50 μM. H9C2 rat cardiomyocytes cells were dispensed in T225 tissue culture flasks and after 4 hours they were infected during 18 hours with T. cruzi trypomastigotes in the same T225 tissue culture flasks at a multiplicity of infection of 1. Next, any remaining free trypomastigotes were washed away with PBS and the infected H9C2 cells were harvested by trypsinisation. The infected H9C2 cells were then plated into 384-well plates containing the compounds to be tested, at 2500 cells per well in DMEM media with 2% FBS, 1% Penicillin/Streptomocin, 2 mM L-Glutamine, 1 mM Na Pyruvate and 25 mM HEPES. After 72 h incubation at 37° C. in presence of 5% CO2, the plates were fixed and stained with 4% formaldehyde and 2 μM Draq5 for 3 hours at room temperature. The plates were imaged on a Perkin Elmer Opera high-content imaging system using a 20× air objective. Images were analysed using the Acapella building blocks system (Perkin Elmer). The image analysis algorithm first identified the H9C2 nuclei followed by demarcation of the cytoplasm and identification of intracellular amastigotes. This algorithm reported mean number of parasites per H9C2 cell, the percentage of infected H9C2 cells and the total number of H9C2 cells.

Leishmania donovani = assay: Assay 1 intramacrophage Leishmania donovani assay (potency readout); assay type: cell-based; conditions: amastigotes in PMA-treated THP-1 macrophages, 96 h, average number of amastigotes per cell, minimum threshold 4.3, read-out: pEC50 value against Leishmania donovani (converted)
Experimental: (§1) The intramacrophage Leishmania assay was performed using a modified version of the method described in De Rycker et al. (Antimicrob Agents Chemother. 2013 July; 57(7):2913-22. Comparison of a high-throughput high-content intracellular Leishmania donovani assay with an axenic amastigote assay. De Rycker M, Hallyburton I, Thomas J, Campbell L, Wyllie S, Joshi D, Cameron S, Gilbert I H, Wyatt P G, Frearson J A, Fairlamb A H, Gray D W.). Procedure: 350 nl of compound was pre-dispensed into 384 well sterile intermediary plates. For single point screening, amphotericin B was added to all wells of column 24 as a positive control (final concentration 2 μM) and DMSO to column 23. For potency determinations, ten-point, one in three dilution curves were created with the highest concentration being 50 μM and on each plate a control curve of amphotericin B was included. Controls were as follows: columns 11 and 12: DMSO, columns 23 and 24: amphotericin B (final concentration 2 μM). To the intermediary plates, 35 μl of THP-1 media was added and plates were shaken for >5 min to ensure complete mixing. THP-1 cells (8,000 per well, 50 μl) were plated into black clear-bottom 384 well plates (Corning) in presence of 20 nM PMA. After 20 min at RT, the plates were incubated at 37° C. under 5% CO2 in a humidified incubator for 75 h. The cells were then washed with […] sterile phosphate buffered saline (PBS) supplemented with 1 mM CaCl2, 0.5 mM MgCl2, 0.1% (w/v) bovine serum albumin (PBS-A) and amastigotes were added to all wells at a multiplicity of infection of 5 (40,000 amastigotes per well). After 40 min at RT, plates were returned to the incubator. Amastigotes were incubated in the presence of THP-1 macrophages for 16 h. Any remaining extracellular amastigotes were subsequently removed with an overflow wash of 1 mL PBS-A per well (wash buffer is being aspirated from the top of the well as it is being dispensed) followed by addition of 25 μl of the compound pre-dilutions using a Fluidx Ipette-pro pipetting station. The final dilution of each compound was 200-fold. Plates were incubated for 96 h and then washed (250 μl PBS-A) and fixed (4% (v/v) formaldehyde-PBS, 30 min, RT). After fixation, the wells were washed with 250 μl PBS, stained (10 μg/mL DAPI, 0.4 μg mL-1 HCS Cellmask Deep Red in PBS+0.1% (v/v) Triton X-100, 30 min, RT) and washed with 250 μl PBS. Finally, PBS+0.05% (v/v) thimerosal was added to the wells, the plates were sealed and imaged on a high-content microscope (GE IN Cell 2000) using a 10× objective. Image analysis was carried out with GE IN Cell Analyzer 1000 Workstation using the “Multi Target Analysis” module. Settings for segmentation were as follows: nuclei: minimum area: 142.384 μm2, sensitivity: 81, method: top-hat; cells: characteristic area: 2500 μm2, sensitivity: 60, method: multiscale top-hat; organelles (amastigotes): granule size 1-3, 3 scales, sensitivity: 90, detection in entire cell. For each well, i) THP-1 cell count (cytotoxicity readout) and ii) average number of amastigotes per cell (potency readout) were calculated, both in terms of pEC50 values.

[4] = Assay 5 Leishmania donovani intracellular assay, cytotoxicity against THP-1 cells; assay type: cell-based; conditions: human, total number of THP-1 cells, minimum threshold 4.3, read-out: cytotoxicity against THP-1 cells, pEC50 value (converted)
Experimental: Compounds were dispensed into black 384-well assay plates (Greiner) by acoustic dispensing (LabCyte ECHO). For potency determinations, eleven-point, one in three dilution curves were generated, with a top concentration of 50 μM. THP-1 human monocytes cells were dispensed in T225 tissue culture flasks and differentiated using 30 nM of PMA, after 24 hours they were infected overnight using Leishmania donovani expressing Green Fluorescent Protein (eGFP) amastigotes in the same T225 tissue culture flasks at a multiplicity of infection of 10. Next, any remaining free amastigotes were washed away with PBS and the infected THP-1 cells were harvested by trypsinisation. The infected cells were then plated into 384-well plates containing the compounds to be tested, at 3000 cells per well in RPMI media with 2% FBS and 25 mM Sodium bicarbonate. After 96 h incubation at 37° C. in presence of 5% CO2, the plates were fixed with 4% formaldehyde for 30 minutes, washed with PBS and stained with 0.1 mg/mL of DAPI for 30 minutes and washed again with PBS. The plates were imaged on a Perkin Elmer Opera high-content imaging system using a 20× air objective with two expositions, one for DAPI stain and other for eGFP. Images were analysed using the Acapella building blocks system (Perkin Elmer). The image analysis algorithm first identified the THP-1 nuclei followed by demarcation of the cytoplasm and identification of intracellular amastigotes. This algorithm reported mean number of parasites per THP-1 cell, the percentage of infected THP-1 cells and the total number of THP-1 cells.

[5] = Assay 4 solubility assay, ChemiLuminescent Nitrogen Detection (CLND); assay type: physicochemical; conditions: phosphate buffered saline, pH 7.4, aqueous buffer, kinetic from dmso stock, pH 7.4 PBS, from 10 mM DMSO stock, 1 h at room temperature
Procedure, shortened: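 Kinetic solubility: 10 mM DMSO stock diluted 5 µl into 100 µl pH 7.4 PBS, incubated 1 h at room temperature, then filtered. Filtrate quantified by HPLC with chemiluminescent nitrogen detection against ondansetron and caffeine standards; solubility in µM by linear-regression calibration.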

[6] = Assay 1 intramacrophage Leishmania donovani assay, THP-1 cell count (cytotoxicity readout); assay type: cell-based; conditions: human, minimum threshold 4.3, read-out: cytotoxicity against THP-1 cells, pEC50 value (converted)
Experimental: as §1

O=S(=O)(Nc1ccc(F)c(-c2cn3nc(N4CCOCC4)cnc3n2)c1)N1CCCC1 [Example 10, N-(4-fluoro-3-(2-morpholinoimidazo[1,2-b][1,2,4]triazin-6-yl)phenyl)pyrrolidine-1-sulfonamide]
EC50 (Trypanosoma cruzi [1]): 20 µM | EC50 (Trypanosoma cruzi [2]): 10 to 39.8 µM | EC50 (Trypanosoma brucei): ≥ 20 µM

O=S(=O)(Nc1ccc(F)c(-c2cn3nc(N4CCOCC4)cnc3n2)c1)C1CCCC1 [Example 33, N-(4-fluoro-3-(2-morpholinoimidazo [1,2-b][1,2,4]triazin-6-yl)phenyl)cyclo-pentanesulfonamide]
EC50 at 72 h [3]: 0.794 to 3.16 µM | EC50 (Leishmania donovani): > 50.1 µM | EC50 (Trypanosoma cruzi [2]): 10 to 39.8 µM

CNCc1ccc(-c2cnc3nc(-c4cc(NC(=O)N5CCCC5)ccc4F)cn3n2)cc1 [Example 38, N-(4-fluoro-3-(2-(4-((methylamino)methyl)phenyl)imidazo[1,2-b] [1,2,4]triazin-6-yl)phenyl)pyrrolidine-1-carboxamide]
EC50 at 96 h [4]: 2.51 to 10 µM | EC50 at 72 h [3]: 0.794 to 3.16 µM | EC50 (Trypanosoma cruzi [2]): 0.00501 to 0.631 µM | solubility at 1 h [5]: 10 to 83 µM (≈ 4.46 to 37 µg/mL) | EC50 at 96 h [6]: 3.98 to 15.8 µM

COc1ccc(CNCc2cccc(-c3cnc4nc(-c5cc(NC(=O)N6CCCC6)ccc5F)cn4n3)c2)cc1 [Example 45, N-(4-fluoro-3-(2-(3-(((4-methoxybenzyl)amino)methyl)phenyl)imidazo [1,2-b][1,2,4]triazin-6-yl)phenyl)pyrrolidine-1-carboxamide]
EC50 at 96 h [4]: 2.51 to 10 µM | EC50 at 72 h [3]: 0.794 to 3.16 µM | EC50 (Trypanosoma cruzi [2]): 0.00501 to 0.631 µM | solubility at 1 h [5]: 10 to 83 µM (≈ 5.52 to 45.8 µg/mL) | EC50 at 96 h [6]: 3.98 to 15.8 µM
